Measured values taken from ChEMBL document CHEMBL1129105, “Synthesis and biological evaluation of N-(1-aziridino)-6-fluoro-quinolone-3-carboxylic acids” (1996).
Values after ≈ are worked out from the molar mass of the structure shown.

Assays:
Staphylococcus aureus [1] = assay: In vitro antibacterial activity of compound was measured against gram positive Staphylococcus aureus 1110 pen.rez.; type: functional
[2] = tested on: Mycobacterium tuberculosis; assay: In vitro antibacterial activity of compound was measured against gram positive Mycobacterium tuberculosis H37Rv (human); type: functional
Escherichia coli [3] = assay: In vitro antibacterial activity of compound was measured against gram negative Escherichia coli K12; type: functional
Salmonella typhimurium = assay: In vitro antibacterial activity of compound was measured against gram negative Salmonella Typhimurium 51; type: functional, Salmonella enterica subsp. enterica serovar Typhimurium; conditions: Salmonella enterica
Proteus vulgaris = assay: In vitro antibacterial activity of compound was measured against gram negative Proteus vulgaris XL; type: functional
Staphylococcus aureus [4] = assay: In vitro antibacterial activity of compound was measured against gram positive Staphylococcus aureus SMITH; type: functional
Alcaligenes faecalis = assay: In vitro antibacterial activity of compound was measured against gram negative Alcaligenes faecalis 140001; type: functional
Serratia marcescens = assay: In vitro antibacterial activity of compound was measured against gram negative Serratia marcescens; type: functional
[5] = tested on: Mycobacterium tuberculosis; assay: In vitro antibacterial activity of compound was measured against gram positive Mycobacterium tuberculosis Ravenel(bovin); type: functional
Clostridium perfringens = assay: In vitro antibacterial activity of compound was measured against gram positive Clostridium perfringens 70500; type: functional
[6] = tested on: Acinetobacter calcoaceticus subsp. anitratus; assay: In vitro antibacterial activity of compound was measured against gram negative Acinetobacter anitratus 150001; type: functional
Klebsiella pneumoniae = assay: In vitro antibacterial activity of compound was measured against gram negative Klebsiella pneumoniae ATCC 10031; type: functional
Escherichia coli [7] = assay: In vitro antibacterial activity of compound was measured against gram negative Escherichia coli 6R; type: functional
Streptococcus pyogenes [8] = assay: In vitro antibacterial activity of compound was measured against gram positive Streptococcus pyogenes A 115 ROBB; type: functional
Streptococcus pyogenes [9] = assay: In vitro antibacterial activity of compound was measured against gram positive Streptococcus pyogenes A 118; type: functional
Bacteroides fragilis = assay: In vitro antibacterial activity of compound was measured against gram negative Bacteroides fragilis ATCC 25285; type: functional
[10] = tested on: Bordetella bronchiseptica; assay: In vitro antibacterial activity of compound was measured against gram negative Bordetella bronchiseptica ATCC 4617; type: functional
Enterococcus faecalis = assay: In vitro antibacterial activity of compound was measured against gram positive Streptococcus faecalis; type: functional
Pseudomonas aeruginosa = assay: In vitro antibacterial activity of compound was measured against gram negative Pseudomonas pyocyanea NCTC 10490; type: functional, pseudomona pyocyanea
Shigella sonnei = assay: In vitro antibacterial activity of compound was measured against gram negative Shigella sonnei; type: functional
Streptococcus pneumoniae = assay: In vitro antibacterial activity of compound was measured against gram positive Streptococcus pneumoniae; type: functional
Proteus inconstans = assay: In vitro antibacterial activity of compound was measured against gram negative Proteus inconstans NCTC 8055; type: functional; conditions: Providencia alcalifaciens
Bacillus subtilis = assay: In vitro antibacterial activity of compound was measured against gram positive Bacillus subtilis ATCC 6633; type: functional

CN1CCN(c2c(F)cc3c(=O)c(C(=O)O)cn(N4CC4c4cccc(C(F)(F)F)c4)c3c2F)CC1 (stereo unspecified)
MIC (Staphylococcus aureus [1]): 50 µg/mL (≈ 98.3 µM)
MIC [2]: 100 µg/mL (≈ 197 µM)
MIC (Escherichia coli [3]): 50 µg/mL (≈ 98.3 µM)
MIC (Salmonella typhimurium): 50 µg/mL (≈ 98.3 µM)
MIC (Proteus vulgaris): 100 µg/mL (≈ 197 µM)
MIC (Staphylococcus aureus [4]): 25 µg/mL (≈ 49.2 µM)
MIC (Alcaligenes faecalis): 100 µg/mL (≈ 197 µM)
MIC (Serratia marcescens): 100 µg/mL (≈ 197 µM)
MIC [5]: 50 µg/mL (≈ 98.3 µM)
MIC (Clostridium perfringens): 100 µg/mL (≈ 197 µM)
MIC [6]: 100 µg/mL (≈ 197 µM)
MIC (Klebsiella pneumoniae): 12.5 µg/mL (≈ 24.6 µM)
MIC (Escherichia coli [7]): 100 µg/mL (≈ 197 µM)
MIC (Streptococcus pyogenes [8]): 100 µg/mL (≈ 197 µM)
MIC (Streptococcus pyogenes [9]): 100 µg/mL (≈ 197 µM)
MIC (Bacteroides fragilis): 50 µg/mL (≈ 98.3 µM)
MIC [10]: 100 µg/mL (≈ 197 µM)
MIC (Enterococcus faecalis): 50 µg/mL (≈ 98.3 µM)
MIC (Pseudomonas aeruginosa): 100 µg/mL (≈ 197 µM)
MIC (Shigella sonnei): 12.5 µg/mL (≈ 24.6 µM)
MIC (Streptococcus pneumoniae): 25 µg/mL (≈ 49.2 µM)
MIC (Proteus inconstans): 100 µg/mL (≈ 197 µM)
MIC (Bacillus subtilis): 50 µg/mL (≈ 98.3 µM)

CN1CCN(c2cc3c(cc2F)c(=O)c(C(=O)O)cn3N2CC2c2cccc(C(F)(F)F)c2)CC1 (stereo unspecified)
MIC (Staphylococcus aureus [1]): 25 µg/mL (≈ 51 µM)
MIC [2]: 12.5 µg/mL (≈ 25.5 µM)
MIC (Escherichia coli [3]): 100 µg/mL (≈ 204 µM)
MIC (Salmonella typhimurium): 100 µg/mL (≈ 204 µM)
MIC (Proteus vulgaris): 100 µg/mL (≈ 204 µM)
MIC (Staphylococcus aureus [4]): 25 µg/mL (≈ 51 µM)
MIC (Alcaligenes faecalis): 100 µg/mL (≈ 204 µM)
MIC (Serratia marcescens): 100 µg/mL (≈ 204 µM)
MIC [5]: 100 µg/mL (≈ 204 µM)
MIC (Clostridium perfringens): 12.5 µg/mL (≈ 25.5 µM)
MIC [6]: 100 µg/mL (≈ 204 µM)
MIC (Klebsiella pneumoniae): 12.5 µg/mL (≈ 25.5 µM)
MIC (Escherichia coli [7]): 100 µg/mL (≈ 204 µM)
MIC (Streptococcus pyogenes [8]): 50 µg/mL (≈ 102 µM)
MIC (Streptococcus pyogenes [9]): 25 µg/mL (≈ 51 µM)
MIC (Bacteroides fragilis): 50 µg/mL (≈ 102 µM)
MIC [10]: 50 µg/mL (≈ 102 µM)
MIC (Enterococcus faecalis): 25 µg/mL (≈ 51 µM)
MIC (Pseudomonas aeruginosa): 100 µg/mL (≈ 204 µM)
MIC (Shigella sonnei): 25 µg/mL (≈ 51 µM)
MIC (Streptococcus pneumoniae): 12.5 µg/mL (≈ 25.5 µM)
MIC (Proteus inconstans): 100 µg/mL (≈ 204 µM)
MIC (Bacillus subtilis): 10 µg/mL (≈ 20.4 µM)

CN1CCN(c2c(F)cc3c(=O)c(C(=O)O)cn(N4CC4c4ccccn4)c3c2F)CC1 (stereo unspecified)
MIC (Staphylococcus aureus [1]): > 100 µg/mL
MIC [2]: 100 µg/mL (≈ 227 µM)
MIC (Escherichia coli [3]): 50 µg/mL (≈ 113 µM)
MIC (Salmonella typhimurium): 25 µg/mL (≈ 56.6 µM)
MIC (Proteus vulgaris): 25 µg/mL (≈ 56.6 µM)
MIC (Staphylococcus aureus [4]): > 100 µg/mL
MIC (Alcaligenes faecalis): > 100 µg/mL
MIC (Serratia marcescens): 25 µg/mL (≈ 56.6 µM)
MIC [5]: 50 µg/mL (≈ 113 µM)
MIC (Clostridium perfringens): 100 µg/mL (≈ 227 µM)
MIC [6]: > 100 µg/mL
MIC (Klebsiella pneumoniae): 12.5 µg/mL (≈ 28.3 µM)
MIC (Escherichia coli [7]): > 100 µg/mL
MIC (Streptococcus pyogenes [8]): > 100 µg/mL
MIC (Streptococcus pyogenes [9]): > 100 µg/mL
MIC (Bacteroides fragilis): > 100 µg/mL
MIC [10]: > 100 µg/mL
MIC (Enterococcus faecalis): > 100 µg/mL
MIC (Pseudomonas aeruginosa): > 100 µg/mL
MIC (Shigella sonnei): 6.2 µg/mL (≈ 14 µM)
MIC (Streptococcus pneumoniae): 100 µg/mL (≈ 227 µM)
MIC (Proteus inconstans): 50 µg/mL (≈ 113 µM)
MIC (Bacillus subtilis): > 100 µg/mL

CN1CCN(c2cc3c(cc2F)c(=O)c(C(=O)O)cn3N2CC2c2ccccc2)CC1 (stereo unspecified)
MIC (Staphylococcus aureus [1]): 25 µg/mL (≈ 59.2 µM)
MIC [2]: 6.2 µg/mL (≈ 14.7 µM)
MIC (Escherichia coli [3]): 50 µg/mL (≈ 118 µM)
MIC (Salmonella typhimurium): 50 µg/mL (≈ 118 µM)
MIC (Proteus vulgaris): 50 µg/mL (≈ 118 µM)
MIC (Staphylococcus aureus [4]): 12.5 µg/mL (≈ 29.6 µM)
MIC (Alcaligenes faecalis): 100 µg/mL (≈ 237 µM)
MIC (Serratia marcescens): 100 µg/mL (≈ 237 µM)
MIC [5]: 3.1 µg/mL (≈ 7.34 µM)
MIC (Clostridium perfringens): 6.2 µg/mL (≈ 14.7 µM)
MIC [6]: 50 µg/mL (≈ 118 µM)
MIC (Klebsiella pneumoniae): 3.1 µg/mL (≈ 7.34 µM)
MIC (Escherichia coli [7]): 100 µg/mL (≈ 237 µM)
MIC (Streptococcus pyogenes [8]): 10 µg/mL (≈ 23.7 µM)
MIC (Streptococcus pyogenes [9]): 10 µg/mL (≈ 23.7 µM)
MIC (Bacteroides fragilis): 6.2 µg/mL (≈ 14.7 µM)
MIC [10]: 6.2 µg/mL (≈ 14.7 µM)
MIC (Enterococcus faecalis): 25 µg/mL (≈ 59.2 µM)
MIC (Pseudomonas aeruginosa): 100 µg/mL (≈ 237 µM)
MIC (Shigella sonnei): 6.2 µg/mL (≈ 14.7 µM)
MIC (Streptococcus pneumoniae): 5 µg/mL (≈ 11.8 µM)
MIC (Proteus inconstans): 100 µg/mL (≈ 237 µM)
MIC (Bacillus subtilis): 6.2 µg/mL (≈ 14.7 µM)

O=C(O)c1cn(C2CC2)c2cc(N3CCNCC3)c(F)cc2c1=O [CIPROFLOXACIN]
MIC (Staphylococcus aureus [1]): 0.25 µg/mL (≈ 0.754 µM)
MIC [2]: 0.2 µg/mL (≈ 0.604 µM)
MIC (Salmonella typhimurium): 0.015 µg/mL (≈ 0.0453 µM)
MIC (Proteus vulgaris): 0.008 µg/mL (≈ 0.0241 µM)
MIC (Staphylococcus aureus [4]): 0.12 µg/mL (≈ 0.362 µM)
MIC (Alcaligenes faecalis): 1 µg/mL (≈ 3.02 µM)
MIC (Serratia marcescens): 0.03 µg/mL (≈ 0.0905 µM)
MIC [5]: 0.05 µg/mL (≈ 0.151 µM)
MIC [6]: 0.25 µg/mL (≈ 0.754 µM)
MIC (Klebsiella pneumoniae): 0.008 µg/mL (≈ 0.0241 µM)
MIC (Streptococcus pyogenes [8]): 1 µg/mL (≈ 3.02 µM)
MIC (Streptococcus pyogenes [9]): 1 µg/mL (≈ 3.02 µM)
MIC (Bacteroides fragilis): 6.2 µg/mL (≈ 18.7 µM)
MIC [10]: 0.25 µg/mL (≈ 0.754 µM)
MIC (Enterococcus faecalis): 1 µg/mL (≈ 3.02 µM)
MIC (Shigella sonnei): 0.015 µg/mL (≈ 0.0453 µM)
MIC (Streptococcus pneumoniae): 1 µg/mL (≈ 3.02 µM)
MIC (Proteus inconstans): 0.03 µg/mL (≈ 0.0905 µM)
MIC (Bacillus subtilis): 0.03 µg/mL (≈ 0.0905 µM)
